The target in this test is T1, human vasopressin V1b receptor (Homo sapiens, UniProt P47901).
T1 construct: expressed in transfected cells; host or cells: CHO-K1 (cell line hV1b_3H2_CHO), membrane preparation
T1 sequence (P47901 1-424): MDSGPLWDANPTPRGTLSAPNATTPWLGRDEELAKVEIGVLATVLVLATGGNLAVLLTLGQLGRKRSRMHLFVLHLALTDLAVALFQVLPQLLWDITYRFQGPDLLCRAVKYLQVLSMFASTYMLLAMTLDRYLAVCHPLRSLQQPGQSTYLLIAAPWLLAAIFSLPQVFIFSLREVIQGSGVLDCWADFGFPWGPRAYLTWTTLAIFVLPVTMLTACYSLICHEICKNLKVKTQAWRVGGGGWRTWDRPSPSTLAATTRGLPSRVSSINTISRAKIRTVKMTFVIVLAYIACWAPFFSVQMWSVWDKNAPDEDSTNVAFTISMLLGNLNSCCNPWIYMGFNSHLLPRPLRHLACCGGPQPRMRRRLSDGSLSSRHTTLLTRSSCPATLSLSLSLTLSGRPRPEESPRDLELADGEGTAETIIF
The experiment in a line: Vasopressin V1b receptor binding test. To be noted: membranes of CHO-K1 cells with human V1b receptor, displacement of 1.5 nM 3H-AVP; for compounds with more than one stereogenic center the diastereomer with greater affinity. How it is done:
Vasopressin V1b Receptor Binding Test:
The test substances were dissolved at a concentration of 10^−2 M in DMSO, and were further diluted to 5×10^−4 M to 5×10^−9 M in DMSO. This DMSO predilution series was diluted 1:10 with test buffer. In the test assay the substance concentration was further diluted to 1:5 (2% DMSO in the assay).
The membrane pellet was homogenized again as described and centrifuged, and was then taken up in 50 mM tris-HCl at pH 7.4, homogenized, and frozen in aliquots at −190° C. and stored in liquid nitrogen.
The incubation buffer was 50 mM tris, 10 mM MgCl2, and 0.1% BSA at pH 7.4. […] The nonspecific binding was determined using 1 μM AVP (Bachem #H1780). All determinations were performed in triplicate. After incubation (60 minutes at room temperature), the free radioligand was filtered off by vacuum filtration (Skatron 7000 cell harvester) through Wathman GF/B fiberglass filter mats, and the filters were transferred to scintillation vessels. The liquid scintillation measurement was conducted in a Model 2000 or 2200CA TriCarb unit (Packard). The measured cpm was converted to dpm using a standard quench series.
The binding parameters were calculated by nonlinear regression in SAS.
The affinities of the compounds according to the invention for human vasopressin receptor V1b were measured according to the above test, and the affinity constants (Ki) were determined.

On to `COc1ccc(S(=O)(=O)N2C(=O)C(c3cc(CN4CCCC4)ccc3OC)(N3C[C@H](OC(C)(C)C)C[C@H]3c3ncco3)c3cc(Cl)ccc32)cc1` (stereo partly drawn) [Example 213, 3-((2S,4R)-4-tert-butoxy-2-oxazol-2-yl-pyrrolidin-1-yl)-5-chloro-1-(4-methoxybenzenesulfonyl)-3-(2-methoxy-5-pyrrolidin-1-ylmethylphenyl)-1,3-dihydroindol-2-one], for which the inhibitory constant (Ki) lay within 10 to 100 nM.

Turning to `CCNCc1ccc(C2(N3CCC[C@H]3c3ncco3)C(=O)N(S(=O)(=O)c3ccc(OC)cc3)c3ccc(C#N)cc32)c(OC)c1` (stereo partly drawn) [Example 98, 5-Cyano-3-(4-ethylaminomethyl-2-methoxyphenyl)-1-(4-methoxybenzenesulfonyl)-3-((S)-2-oxazol-2-yl-pyrrolidin-1-yl)-1,3-dihydroindol-2-one], the inhibitory constant (Ki) lay within 10 to 100 nM.

Take `COc1ccc(CN2CCN(C)CC2)cc1C1(N2CCC[C@H]2c2ncco2)C(=O)N(S(=O)(=O)c2ccccc2)c2ccc(Cl)cc21` (stereo partly drawn) [Example 84, 1-(Benzenesulfonyl)-5-chloro-3-[2-methoxy-5-(4-methylpiperazin-1-ylmethyl)phenyl]-3-((S)-2-oxazol-2-yl-pyrrolidin-1-yl)-1,3-dihydroindol-2-one]: the Ki lay within 100 to 1000 nM.

`CNCc1cc2c(c(C3(N4CCC[C@H]4c4ncco4)C(=O)N(S(=O)(=O)c4ccc(OC)cc4)c4ccc(Cl)cc43)c1)OCO2` (stereo partly drawn) [Example 185, 5-Chloro-1-(4-methoxybenzenesulfonyl)-3-(6-methylaminomethylbenzo[1,3]dioxol-4-yl)-3-((S)-2-oxazol-2-yl-pyrrolidin-1-yl)-1,3-dihydroindol-2-one]: the inhibition constant Ki lay in the range of 10 to 100 nM.

Consider `COc1ccc(S(=O)(=O)N2C(=O)C(c3cc(CNC(C)(C)C)ccc3OC)(N3CCC[C@H]3c3ncco3)c3cc(Cl)ccc32)cc1` (stereo partly drawn) [Example 139, 5-Chloro-3-[5-(tert-butylaminomethyl)-2-methoxyphenyl]-1-(4-methoxybenzenesulfonyl)-3-((S)-2-oxazol-2-yl-pyrrolidin-1-yl)-1,3-dihydroindol-2-one], for which the Ki was in the range of 10 to 100 nM.

Compound `COc1ccc(S(=O)(=O)N2C(=O)C(c3cc(CN4CCN(CCO)CC4)ccc3OC)(N3CCC[C@H]3c3ncco3)c3cc(Cl)ccc32)cc1` (stereo partly drawn) [Example 92, 5-Chloro-3-{5-[4-(2-hydroxyethyl)piperazin-1-ylmethyl]-2-methoxyphenyl}-1-(4-methoxybenzenesulfonyl)-3-((S)-2-oxazol-2-yl-pyrrolidin-1-yl)-1,3-dihydroindol-2-one] yielded a Ki of less than 10 nM.

`COc1ccc(S(=O)(=O)N2C(=O)C(N[C@@H](C)c3ncco3)(c3cc(CN4CCN(C)CC4)ccc3OC)c3cc(Cl)ccc32)cc1` (stereo partly drawn) [Example 128, 5-Chloro-1-(4-methoxybenzenesulfonyl)-3-[2-methoxy-5-(4-methylpiperazin-1-ylmethyl)phenyl]-3-((S)-1-oxazol-2-yl-ethylamino)-1,3-dihydroindol-2-one] had an inhibition constant (Ki) of less than 10 nM.

`COc1ccc(S(=O)(=O)N2C(=O)C(c3cc(CN(C)C)ccc3OC)(N3CCC[C@H]3c3ncco3)c3cc(C#N)ccc32)cc1` (stereo partly drawn) [Example 46, 5-Cyano-3-(5-dimethylaminomethyl-2-methoxyphenyl)-1-(4-methoxybenzenesulfonyl)-3-((S)-2-oxazol-2-yl-pyrrolidin-1-yl)-1,3-dihydroindol-2-one] returned a Ki of 10 to 100 nM.

In turn, `COc1ccc(S(=O)(=O)N2C(=O)C(c3ccc(CN4CCNCC4)cc3OC)(N3CCC[C@H]3c3ncco3)c3cc(Cl)c(F)cc32)cc1` (stereo partly drawn) [Example 211, 5-Chloro-6-fluoro-1-(4-methoxybenzenesulfonyl)-3-(2-methoxy-4-piperazin-1-ylmethylphenyl)-3-((S)-2-oxazol-2-yl-pyrrolidin-1-yl)-1,3-dihydroindol-2-one] showed a Ki of less than 10 nM.

These data come from patent US8044079B2, “Substituted oxindole derivatives, medicaments containing said derivatives and use thereof” (Abbott GmbH & Co. KG, priority 2005, dated 2011).
